Experimental data taken from ChEMBL document CHEMBL1128098, “Synthesis and serotonin receptor binding properties of 5-substituted 3-(1,2,5,6-tetrahydropyridin-3-yl) indoles” (Bioorg Med Chem Lett, 1995).

Assays:
[1] = target: T1, 5-hydroxytryptamine receptor 1A (Rattus norvegicus, UniProt P19327); assay: Binding affinity to 5-hydroxytryptamine 1A receptor using [3H]8-OH-DPAT radioligand assay.
T1 sequence (P19327 whole entry): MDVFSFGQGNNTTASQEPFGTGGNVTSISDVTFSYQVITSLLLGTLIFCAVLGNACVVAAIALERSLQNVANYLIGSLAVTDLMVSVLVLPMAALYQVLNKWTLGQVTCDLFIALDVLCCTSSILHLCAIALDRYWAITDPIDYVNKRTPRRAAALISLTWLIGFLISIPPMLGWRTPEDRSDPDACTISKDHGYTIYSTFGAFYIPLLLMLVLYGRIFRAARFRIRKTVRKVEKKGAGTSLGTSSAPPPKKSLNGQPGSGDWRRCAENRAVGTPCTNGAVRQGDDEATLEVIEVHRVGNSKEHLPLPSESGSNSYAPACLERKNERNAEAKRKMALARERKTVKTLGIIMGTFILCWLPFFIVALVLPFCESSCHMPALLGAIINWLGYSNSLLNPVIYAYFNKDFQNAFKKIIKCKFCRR

[2] = target: Serotonin 2 (5-HT2) receptor (Rattus norvegicus, UniProt P30994+P08909+P14842); assay: Binding affinity to 5-hydroxytryptamine 2 receptor using [3H]ketanserin radioligand assay.; type: protein assay

SMILES | Ki [1] | Ki [2]
CCCN1CCC=C(c2c[nH]c3ccc(C#N)cc23)C1 | 303 nM | 958 nM
CCN1CCC=C(c2c[nH]c3ccc(C)cc23)C1 | 42 nM | 246 nM
Cc1ccc2[nH]cc(C3=CCCN(C)C3)c2c1 | 72 nM | 194 nM
CCCN1CCC=C(c2c[nH]c3ccc(Br)cc23)C1 | 192 nM | 139 nM
CN1CCC=C(c2c[nH]c3ccc(O)cc23)C1 | 145 nM | 237 nM
CCCN1CCC=C(c2c[nH]c3ccccc23)C1 | 556 nM | 146 nM
CN1CCC=C(c2c[nH]c3ccc(F)cc23)C1 | 124 nM | 43 nM
COc1ccc2[nH]cc(C3=CCCN(C)C3)c2c1 | 79 nM | 716 nM
CCN1CCC=C(c2c[nH]c3ccc(F)cc23)C1 | 142 nM | 67 nM
CCN1CCC=C(c2c[nH]c3ccc(Br)cc23)C1 | 24 nM | 125 nM
CCCN1CCC=C(c2c[nH]c3ccc(C(N)=O)cc23)C1 | 4.7 nM | 19152 nM
CN1CCC=C(c2c[nH]c3ccc(Cl)cc23)C1 | 113 nM | 107 nM
CN1CCC=C(c2c[nH]c3ccc(Br)cc23)C1 | 50 nM | 82 nM
CC(=O)c1ccc2[nH]cc(C3=CCCN(C)C3)c2c1 | 91 nM | 3383 nM
CC(=O)Nc1ccc2[nH]cc(C3=CCCN(C)C3)c2c1 | 16 nM | 14536 nM
CCN1CCC=C(c2c[nH]c3ccc(C#N)cc23)C1 | 186 nM | 1360 nM
CN1CCC=C(c2c[nH]c3ccc(C(N)=O)cc23)C1 | 3.8 nM | > 10000 nM
CN1CCC=C(c2c[nH]c3ccccc23)C1 | 261 nM | 139 nM
CCCN1CCC=C(c2c[nH]c3ccc(C(=O)OC)cc23)C1 | 214 nM | > 50000 nM
COc1ccc2[nH]cc(C3=CCCNC3)c2c1 | 5.7 nM | 230 nM
CCN1CCC=C(c2c[nH]c3ccc(Cl)cc23)C1 | 47 nM | 150 nM
CN1CC[C@@H]2CCc3[nH]c4ccccc4c3[C@H]2C1 | 2360 nM | 325 nM
CN1CCC=C(c2c[nH]c3ccc(C#N)cc23)C1 | 129 nM | 1035 nM
CCN1CCC=C(c2c[nH]c3ccccc23)C1 | 213 nM | 165 nM
COC(=O)c1ccc2[nH]cc(C3=CCCN(C)C3)c2c1 | 102 nM | 5360 nM
CCN1CCC=C(c2c[nH]c3ccc(OC)cc23)C1 | 71 nM | 1130 nM
CCCN1CCC=C(c2c[nH]c3ccc(NC(C)=O)cc23)C1 | 205 nM | > 50000 nM
CCCN1CCC=C(c2c[nH]c3ccc(OC)cc23)C1 | 226 nM | 1070 nM
